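A five-concentration, 48-hour dose response in 96-well plates underlies each endpoint, interpolated linearly between surrounding concentrations. TGI marks complete inhibition of growth.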
What was measured:
Test in all cases: NCI tumour cell line growth inhibition, 48 h
UACC-257 melanoma = test system: UACC-257 melanoma
HCT-15 colon = test system: HCT-15 colon
NCI-H460 lung = test system: NCI-H460 lung
DU-145 prostate = test system: DU-145 prostate
SNB-75 CNS = test system: SNB-75 CNS
SW-620 colon = test system: SW-620 colon
M14 melanoma = test system: M14 melanoma
COLO 205 colon = test system: COLO 205 colon
OVCAR-8 ovarian = test system: OVCAR-8 ovarian
OVCAR-5 ovarian = test system: OVCAR-5 ovarian
SK-MEL-28 melanoma = test system: SK-MEL-28 melanoma
TK-10 renal = test system: TK-10 renal
SR leukemia = test system: SR leukemia
IGROV1 ovarian = test system: IGROV1 ovarian
RXF 393 renal = test system: RXF 393 renal
LOX IMVI melanoma = test system: LOX IMVI melanoma
UACC-62 melanoma = test system: UACC-62 melanoma
ACHN renal = test system: ACHN renal
HOP-92 NSCLC = test system: HOP-92 NSCLC
BT-549 breast = test system: BT-549 breast
A498 renal = test system: A498 renal
SNB-19 CNS = test system: SNB-19 CNS
NCI-H522 lung = test system: NCI-H522 lung
SF-295 CNS = test system: SF-295 CNS
PC-3 prostate = test system: PC-3 prostate
NCI-H23 lung = test system: NCI-H23 lung
HS 578T breast = test system: HS 578T breast
MDA-MB-231 breast = test system: MDA-MB-231 breast
MCF7 breast = test system: MCF7 breast
MALME-3M melanoma = test system: MALME-3M melanoma
EKVX NSCLC = test system: EKVX NSCLC
NCI/ADR-RES ovarian = test system: NCI/ADR-RES ovarian
SF-539 CNS = test system: SF-539 CNS
OVCAR-4 ovarian = test system: OVCAR-4 ovarian
HT29 colon = test system: HT29 colon
SN12C renal = test system: SN12C renal
CAKI-1 renal = test system: CAKI-1 renal
SK-MEL-5 melanoma = test system: SK-MEL-5 melanoma
SF-268 CNS = test system: SF-268 CNS
A549 NSCLC = test system: A549 NSCLC
NCI-H226 lung = test system: NCI-H226 lung
SK-OV-3 ovarian = test system: SK-OV-3 ovarian
MDA-MB-435 = test system: MDA-MB-435
UO-31 renal = test system: UO-31 renal
MDA-N = test system: MDA-N
HCT-116 colon = test system: HCT-116 colon
OVCAR-3 ovarian = test system: OVCAR-3 ovarian
KM12 colon = test system: KM12 colon
MOLT-4 leukemia = test system: MOLT-4 leukemia
T-47D breast = test system: T-47D breast
786-0 renal = test system: 786-0 renal
HL-60(TB) leukemia = test system: HL-60(TB) leukemia
HOP-62 NSCLC = test system: HOP-62 NSCLC
HCC-2998 colon = test system: HCC-2998 colon
CCRF-CEM leukemia = test system: CCRF-CEM leukemia
U251 CNS = test system: U251 CNS
SK-MEL-2 melanoma = test system: SK-MEL-2 melanoma

Question: O=C1C=CC(=O)c2c(O)c(N3CCN(c4ccccn4)CC3)c(Cl)c(O)c21 was tested. Which TGI (UACC-257 melanoma) did it give?
Answer: 3.87 µM

Question: And the TGI (HCT-15 colon)?
Answer: 2.48 µM

Question: And the TGI (NCI-H460 lung)?
Answer: 8.53 µM

Question: And the TGI (DU-145 prostate)?
Answer: 10.5 µM

Question: And the TGI (SNB-75 CNS)?
Answer: 3.43 µM

Question: What about the TGI (SW-620 colon) of the same compound?
Answer: 1.94 µM

Question: What about the TGI (M14 melanoma) of the same compound?
Answer: 2.85 µM

Question: What about the TGI (COLO 205 colon) of the same compound?
Answer: 2.8 µM

Question: What about the TGI (OVCAR-8 ovarian) of the same compound?
Answer: 6.25 µM

Question: What about the TGI (OVCAR-5 ovarian) of the same compound?
Answer: 17.9 µM

Question: And the TGI (SK-MEL-28 melanoma)?
Answer: 3.37 µM

Question: And the TGI (TK-10 renal)?
Answer: 4.94 µM

Question: What about the TGI (SR leukemia) of the same compound?
Answer: 4.96 µM

Question: What about the TGI (IGROV1 ovarian) of the same compound?
Answer: 3.22 µM

Question: And the TGI (RXF 393 renal)?
Answer: 3.16 µM

Question: And the TGI (LOX IMVI melanoma)?
Answer: 0.299 µM

Question: What about the TGI (UACC-62 melanoma) of the same compound?
Answer: 2.01 µM

Question: And the TGI (ACHN renal)?
Answer: 6.51 µM

Question: What about the TGI (HOP-92 NSCLC) of the same compound?
Answer: 2.72 µM

Question: What about the TGI (BT-549 breast) of the same compound?
Answer: 3.43 µM

Question: And the TGI (A498 renal)?
Answer: 9.68 µM

Question: And the TGI (SNB-19 CNS)?
Answer: 18 µM

Question: What about the TGI (NCI-H522 lung) of the same compound?
Answer: 3.5 µM

Question: And the TGI (SF-295 CNS)?
Answer: 10.7 µM

Question: And the TGI (PC-3 prostate)?
Answer: 4.48 µM

Question: What about the TGI (NCI-H23 lung) of the same compound?
Answer: 2.45 µM

Question: And the TGI (HS 578T breast)?
Answer: 4.97 µM

Question: What about the TGI (MDA-MB-231 breast) of the same compound?
Answer: 3.55 µM

Question: What about the TGI (MCF7 breast) of the same compound?
Answer: 3.01 µM

Question: And the TGI (MALME-3M melanoma)?
Answer: 3.05 µM

Question: And the TGI (EKVX NSCLC)?
Answer: 19.6 µM

Question: And the TGI (NCI/ADR-RES ovarian)?
Answer: 8.98 µM

Question: And the TGI (SF-539 CNS)?
Answer: 3.2 µM

Question: And the TGI (OVCAR-4 ovarian)?
Answer: 3.02 µM

Question: And the TGI (HT29 colon)?
Answer: 2.05 µM

Question: And the TGI (SN12C renal)?
Answer: 3.36 µM

Question: And the TGI (CAKI-1 renal)?
Answer: 4.55 µM

Question: What about the TGI (SK-MEL-5 melanoma) of the same compound?
Answer: 2.95 µM

Question: And the TGI (SF-268 CNS)?
Answer: 7.44 µM

Question: What about the TGI (A549 NSCLC) of the same compound?
Answer: 11.8 µM

Question: And the TGI (NCI-H226 lung)?
Answer: 10.2 µM

Question: And the TGI (SK-OV-3 ovarian)?
Answer: 21.2 µM

Question: What about the TGI (MDA-MB-435) of the same compound?
Answer: 9.29 µM

Question: What about the TGI (UO-31 renal) of the same compound?
Answer: 3.68 µM

Question: What about the TGI (MDA-N) of the same compound?
Answer: 2.81 µM

Question: What about the TGI (HCT-116 colon) of the same compound?
Answer: 3.25 µM

Question: And the TGI (OVCAR-3 ovarian)?
Answer: 4 µM

Question: What about the TGI (KM12 colon) of the same compound?
Answer: 7.02 µM

Question: What about the TGI (MOLT-4 leukemia) of the same compound?
Answer: 2.01 µM

Question: What about the TGI (T-47D breast) of the same compound?
Answer: 3.07 µM

Question: And the TGI (786-0 renal)?
Answer: 1.71 µM

Question: What about the TGI (HL-60(TB) leukemia) of the same compound?
Answer: 0.692 µM

Question: What about the TGI (HOP-62 NSCLC) of the same compound?
Answer: 9.58 µM

Question: What about the TGI (HCC-2998 colon) of the same compound?
Answer: 5.99 µM

Question: What about the TGI (CCRF-CEM leukemia) of the same compound?
Answer: 1.84 µM

Question: Which TGI (UACC-257 melanoma) does the source give for CCC(O)CC1OC2(CCC1C)CC1OC(=O)/C=C\C(C)(O)C(O)C(C)C(O)C(OC3CC(OC)C(O)C(C)O3)C(O)C(C)(O)CCC/C=C/C3CC(C)COC3(O)CC(O2)C1C (configuration not stated) here?
Answer: 15.4 µM

Question: And the TGI (HCT-15 colon)?
Answer: 56.8 µM

Question: And the TGI (NCI-H460 lung)?
Answer: > 75.2 µM

Question: What about the TGI (DU-145 prostate) of the same compound?
Answer: > 100 µM

Question: And the TGI (SNB-75 CNS)?
Answer: 27.3 µM

Question: And the TGI (SW-620 colon)?
Answer: > 100 µM

Question: And the TGI (M14 melanoma)?
Answer: 22 µM

Question: And the TGI (COLO 205 colon)?
Answer: 17.2 µM

Question: What about the TGI (OVCAR-8 ovarian) of the same compound?
Answer: 24.6 µM

Question: And the TGI (OVCAR-5 ovarian)?
Answer: 53 µM

Question: What about the TGI (U251 CNS) of the same compound?
Answer: > 100 µM

Question: And the TGI (SK-MEL-28 melanoma)?
Answer: 54.6 µM

Question: And the TGI (TK-10 renal)?
Answer: 37 µM

Question: And the TGI (SR leukemia)?
Answer: > 80.7 µM

Question: What about the TGI (IGROV1 ovarian) of the same compound?
Answer: 47.1 µM

Question: What about the TGI (RXF 393 renal) of the same compound?
Answer: > 100 µM

Question: And the TGI (LOX IMVI melanoma)?
Answer: 36.7 µM

Question: What about the TGI (UACC-62 melanoma) of the same compound?
Answer: 32.2 µM

Question: What about the TGI (ACHN renal) of the same compound?
Answer: 50.9 µM

Question: What about the TGI (HOP-92 NSCLC) of the same compound?
Answer: > 100 µM

Question: What about the TGI (BT-549 breast) of the same compound?
Answer: 41.2 µM

Question: What about the TGI (A498 renal) of the same compound?
Answer: > 100 µM

Question: And the TGI (SNB-19 CNS)?
Answer: > 100 µM

Question: And the TGI (NCI-H522 lung)?
Answer: 16.3 µM

Question: What about the TGI (SF-295 CNS) of the same compound?
Answer: > 41.8 µM

Question: What about the TGI (PC-3 prostate) of the same compound?
Answer: 20.4 µM

Question: And the TGI (NCI-H23 lung)?
Answer: 71 µM

Question: What about the TGI (HS 578T breast) of the same compound?
Answer: 38.2 µM

Question: What about the TGI (MDA-MB-231 breast) of the same compound?
Answer: > 77.9 µM

Question: And the TGI (MCF7 breast)?
Answer: 30.2 µM

Question: And the TGI (MALME-3M melanoma)?
Answer: 35.5 µM

Question: And the TGI (EKVX NSCLC)?
Answer: 26 µM

Question: What about the TGI (NCI/ADR-RES ovarian) of the same compound?
Answer: 45.1 µM

Question: And the TGI (SF-539 CNS)?
Answer: 44.9 µM

Question: And the TGI (OVCAR-4 ovarian)?
Answer: 48.6 µM

Question: And the TGI (SK-MEL-2 melanoma)?
Answer: 29.6 µM

Question: What about the TGI (HT29 colon) of the same compound?
Answer: 35.1 µM

Question: What about the TGI (SN12C renal) of the same compound?
Answer: > 77.3 µM

Question: And the TGI (CAKI-1 renal)?
Answer: 33.3 µM

Question: And the TGI (SK-MEL-5 melanoma)?
Answer: 8.9 µM

Question: And the TGI (SF-268 CNS)?
Answer: 90.1 µM

Question: And the TGI (A549 NSCLC)?
Answer: > 100 µM

Question: And the TGI (NCI-H226 lung)?
Answer: 27.3 µM

Question: What about the TGI (SK-OV-3 ovarian) of the same compound?
Answer: > 100 µM

Question: What about the TGI (MDA-MB-435) of the same compound?
Answer: 25.4 µM

Question: What about the TGI (UO-31 renal) of the same compound?
Answer: 68.7 µM

Question: What about the TGI (MDA-N) of the same compound?
Answer: 23.8 µM

Question: And the TGI (HCT-116 colon)?
Answer: 29.5 µM

Question: What about the TGI (OVCAR-3 ovarian) of the same compound?
Answer: 27.2 µM

Question: What about the TGI (KM12 colon) of the same compound?
Answer: 16.8 µM

Question: And the TGI (MOLT-4 leukemia)?
Answer: 7.84 µM

Question: What about the TGI (T-47D breast) of the same compound?
Answer: 23.6 µM

Question: And the TGI (786-0 renal)?
Answer: > 89.4 µM

Question: What about the TGI (HL-60(TB) leukemia) of the same compound?
Answer: 10.6 µM

Question: What about the TGI (HOP-62 NSCLC) of the same compound?
Answer: 35.7 µM

Question: And the TGI (HCC-2998 colon)?
Answer: 62.3 µM

Question: And the TGI (CCRF-CEM leukemia)?
Answer: > 60.5 µM
